Data as given in PMC10382589, “In vitro and in vivo antiplasmodial evaluation of sugar-modified nucleoside analogues” (Scientific Reports, 2023).

Key:
[1] = system: Pf3D7 chloroquine-sensitive strain; experiment: SYBR green I based fluorescence growth inhibition assay, Pf3D7; type: cell-based, Plasmodium falciparum
Procedure: Growth of one intraerythrocytic cycle of Pf was monitored after treated with compounds whereas untreated parasites were considered as control.
(§1) The percent growth inhibition of the parasites was evaluated by SYBR Green assay.
(§2) Pf3D7 and PfRKL-9 were cultured by following procedure reported by Trager and Jensen[33]. […] In order to examine the morphological changes in the parasite, a blood film must be prepared. A thin blood film was air-dried, fixed with methanol, and allowed to dry before staining. […] Light microscopy analysis was carried out to evaluate the inhibitory effect of compounds at different concentrations against Pf3D7 and PfRKL-9.
SYBR green I based fluorescence assay was performed to measure the growth inhibition effect of the 26 compounds and further dose dependent assay against Pf3D7, and PfRKL-9 (Indian field strain, source- NIMR, New Delhi, India) was carried out at different concentrations. […] Parasitized erythrocytes were treated with different concentrations of compounds ranging from 1 µM to 10 µM, whereas DMSO worked as a control. Triplicate wells of parasitized erythrocytes treated with compounds were seeded in 96 well microtiter plate following incubation at 37 °C for one cycle of parasite growth. […] Growth inhibition (%) was calculated as follows: % Inhibition = [1 − % Parasitemia (Treatment)/% Parasitemia (Control)] *100. Data were expressed as mean ± SD.

[2] = system: chloroquine resistant strain PfRKL-9; experiment: SYBR green I based fluorescence growth inhibition assay, PfRKL-9; type: cell-based; conditions: Plasmodium falciparum, synchronized late trophozoite parasites, triplicate, mean ± SD, read-out: IC50 (µM) against PfRKL-9
Procedure: as §1, §2
SYBR green I based fluorescence assay was performed to measure the growth inhibition effect of the 26 compounds and further dose dependent assay against Pf3D7, and PfRKL-9 (Indian field strain, source- NIMR, New Delhi, India) was carried out at different concentrations. In brief, Pf3D7 and PfRKL-9 parasitized erythrocytes (trophozoite stage with 1% parasitemia) were diluted with noninfected erythrocytes at a constant 2% hematocrit in culture medium. Parasitized erythrocytes were treated with different concentrations of compounds ranging from 1 µM to 10 µM, whereas DMSO worked as a control. Triplicate wells of parasitized erythrocytes treated with compounds were seeded in 96 well microtiter plate following incubation at 37 °C for one cycle of parasite growth. […] Growth inhibition (%) was calculated as follows: % Inhibition = [1 − % Parasitemia (Treatment)/% Parasitemia (Control)] *100. Data were expressed as mean ± SD.

[3] = system: human RBCs; experiment: Hemolytic activity on human RBCs; type: cell-based; conditions: 0.5-20 µM, 10% (v/v) RBC suspension, 1 h, absorbance at 415 nm
Procedure: Effect of compounds on human RBCs was checked with the help of spectrophotometry by measuring the lysis of human red blood cells (hRBCs). Compounds were tested at 0.5, 1, 5, 10 and 20 μM concentrations with 10% (v/v) RBCs suspension for 1 h and observed the percentage of RBCs lysis by compounds 7, 16, 17, 18 and 1.
Human RBCs were from Rotary Blood Bank, Tughlakabad Institutional Area, New Delhi, India. Effect of compounds on RBCs was checked by hemolytic assay. In brief, RBCs suspension with 10% (v/v) washed with 1 × Phosphate-buffered saline (PBS) (pH 7.4) and again resuspended in 1 × PBS. RBCs suspension was incubated with compounds 7, 16, 17, 18 and 1 at different concentrations (0.5, 1, 5, 10 and 20 μM) for 1 h at 37 °C. Samples were centrifuged and supernatant was taken for absorbance at 415 nm. Triton X-100 with 1% (v/v) was used as a positive control. Experiment was done in triplicate.

[4] = system: P. berghei ANKA; experiment: In vivo antiplasmodial activity in P. berghei ANKA infected BALB/c mice; parameters: species or system Plasmodium berghei ANKA
Procedure: In vivo antiplasmodial efficacy of 7 was assessed in P. berghei ANKA infected BALB/c mice model. Compound dose was given intra-peritoneal injections for seven days in a row. To check the parasitemia, thin blood smears were made from P. berghei ANKA infected mice for up to seven consecutive days. […] Compound 7 was able to effectively reduce the parasite load compared to a control group of untreated mice for seven consecutive days post infection.
To make relevant inferences, statistical analyses were carried out on the in vivo data using Graphpad Prism data sheets.
Antiplasmodial activity of hit compound 7 was investigated in mice model with the help of protocol described previously. Briefly, intra-peritoneal injection of 1 × 10^7 Plasmodium berghei ANKA infected erythrocytes diluted with sterile 1 × PBS was injected into mice. In each group five mice were taken. Thin smears were made from the tail blood of mice to check the infection. Post infection, P. berghei infected mice administered intra-peritoneally with compound 7 with the dose of 50 mg/kg body weight, daily for seven consecutive days post infection. Mice treated with 1xPBS were kept as vehicle control. […] Data were calculated and presented as percentage increase in the parasitemia. All animal experiments were carried out in accordance with the standard approved procedures. […]

[5] = system: Mitochondrial membrane potential of the malaria parasites; experiment: JC-1 mitochondrial membrane potential assay; type: cell-based, Plasmodium falciparum; conditions: parasites treated with IC50 concentration for 3 h; untreated control 7.04 ± 1.30
Text: Mitochondrial membrane potential is a marker of mitochondria’s functional status. Modification in mitochondrial membrane potential leading to mitochondrial dysfunction triggers cell death[25],[26]. Mitochondrial dysfunction was detected by using membrane permeant JC-1 dye. JC-1 is a cationic probe, due to electronegative environment inside the functionally active mitochondria with high Δψm, it aggregates in energised mitochondria and gives red color fluorescence at 590 nm, but in case of low Δψm (depolarized state), JC-1 remain in monomeric form and gives green color fluorescence at […]. Decreased ratio of red/green fluorescence intensity of compound treated sample as compared to untreated control indicates depolarized mitochondrial membrane[27],[28]. The damage to the parasite's mitochondria after treatment with compounds 7, 16, 17, 18 and 1 was measured according to the method reported previously. Because of lipophilic nature of the JC-1, it is cell permeable and emits a green signal (525 nm) in the cytoplasm, but the high transmembrane potential of functional mitochondria causes it to aggregate and emit a red signal (590 nm). […]. Mitochondrial membrane potential of the malaria parasites was determined by using MitoProbe™ JC-1 assay as described previously. In brief, trophozoite stage parasites (10–12% parasitemia) were treated with IC50 concentration of compounds 7, 16, 17, 18 and 1 for 3 h at 37 °C in the CO2 incubator. Samples were washed with 1 × PBS by centrifugation at 500 × g for 2 min at RT. Freshly prepared JC-1 dye was added to each sample with working concentration of 5 µg/mL. Incubation was done for 30 min at 37 °C in a CO2 incubator. Cells were washed twice with 1 × PBS. Spectrofluorometer was used to observe mitochondrial membrane potential by measuring fluoroscence intensities from the parasite lysate at wavelength of excitation (520 nm) and emission (590 nm) respectively. In vivo cell imaging was done with the help of Olympus fluoview 3000 confocal microscopy. Live cell imaging was observed under a 100X objective (oil immersion) and band pass filter at 355–460 nm. Experiments were repeated thrice and only representative figures are shown (Fig. 6).

[6] = system: embryonic kidney cell lines, HEK-293; conditions: HEK-293 cells, MTT, 48 h incubation
Procedure: Cytotoxicity against human embryonic kidney cell line (ATCC) was determined using MTT dye[35]. In order to measuring the cytotoxicity of the compounds we used MTT dye to detect live/dead cells. […] cells were stored at 37 °C, 5% CO2 in […] sterile culture flasks (Corning) in complete Dulbecco's Modified Eagle Medium (DMEM) culture medium (a) supplemented with 5% Fetal Bovine Serum (FBS), gentamicin ([…]), with changing the medium thrice a week. The monolayers were washed, counted, diluted in complete medium, distributed in 96-well microtiter plates (5000 cells/well), followed by incubation for another 24 h at 37 °C. The test compounds and DMSO were added in triplicate. After a 48 h incubation at 37 °C, the supernatant was removed and 100 µL of MTT solution in complete DMEM was added to each well, followed by 2 h incubation at 37 °C. The culture plates were read in a spectrophotometer (Tecan infinite M200, nanoquant, UK) with a 490 nm filter, and the cytotoxic concentrations were determined based on a dose response curve.

## CC(=O)OC[C@H]1O[C@@H](SC[C@@H]2O[C@@H](n3cnc4c(NC(c5ccccc5)(c5ccccc5)c5ccccc5)ncnc43)[C@@H]3OC(C)(C)O[C@@H]32)[C@H](OC(C)=O)[C@@H](OC(C)=O)[C@@H]1OC(C)=O [Compound 7, 1-[2’,3’-O-isopropylidene-5’-S-(2,3,4,6-tetra-O-acetyl-β-D-glucopyranosyl)-5’-thio-α-L-lyxofuranosyl]-N-trityl-adenine]
[1]; Plasmodium falciparum, chloroquine-sensitive strain, synchronized late trophozoite parasites, SYBR Green, triplicate, mean ± SD, read-out: IC50 (µM) against Pf3D7
  IC50: 0.92 ± 1.8 µM
[1]; screen at 1 µM and 10 µM, vs untreated control (Fig. S1)
  growth inhibition against Pf3D7 (in words): significant growth inhibition in a dose dependent manner
[2]
  IC50: 2.1 ± 1.3 µM
[3]
  lysis of human RBCs (in words): no significant lysis
[4]; 50 mg/kg intra-peritoneal, seven days, control 25%
  percentage parasitemia on the seventh day: 10%
[4]; 50 mg/kg, observed 21 days post-infection, control MST = 10 days
  Mean survival time (MST): 14 days
[5]
  JC-1 red/green ratio: 5.26 ± 1.13
[6]
  Cell survival (%) at 500 µM: 55%
